US6566081B1, “Methods of identifying a compound which modulates the non-transcriptional non-map-kinase induced effects of steroid hormones” (The Brigham and Women's Hospital, Inc., priority 1999, dated 2003)

Test system: mouse cremaster muscle venules
Experiment: Model of vascular injury: ischemia and reperfusion in the mouse cremaster muscle (leukocyte rolling and adhesion)
Type: in vivo
Conditions: mice with 1.5 mg slow-release E2 tablets s.c.
Description: Mice were anesthetized and the cremaster muscle was studied under intravital microscopy^28. Ischemia was induced by applying pressure to supplying arteries just sufficient to stop blood flow for 30 min. In some experiments, wortmannin (100 nM) or L-NAME (0.1 mM) was applied to the cremaster muscle during the ischemic period. The pressure was released for reperfusion, and the same vessels were recorded in each animal before and after I/R. The rolling velocities of 25 leukocytes were measured in each venule; sorted and averaged for each rank to construct cumulative histograms. The velocities of 3,750 leukocytes were measured in 150 venules before and after I/R. The number of firmly adherent leukocytes was measured before and after I/R in the same 200 μm long segments of venules.

17β-estradiol [E2]
changes in leukocyte accumulation and rolling velocity following I/R: prevented
